Each block holds one molecule with its values, some of them ahead of it. Activity calls are given as the source filed them. The rule behind the calls is not given here.
Key:
MOLM-14 [1] = experiment: Inhibition of BET in human MOLM-14 cells harboring FLT3-ITD mutant assessed as increase in HEXIM1 protein expression at 5 uM measured after 24 to 48 hrs by Western blot analysis; format: cell-based; details: time hrs 24-48
HEL [2] = experiment: Inhibition of BET in human HEL cells harboring JAK2 V617F mutant assessed as increase in HEXIM1 protein expression at 5 uM measured after 24 to 48 hrs by Western blot analysis; format: cell-based; details: time hrs 24-48
MOLM-14 [3] = experiment: Induction of apoptosis in human MOLM-14 cells harboring FLT3-ITD mutant assessed as cleavage of PARP-1 at 5 uM measured after 24 to 48 hrs by Western blot analysis; format: functional, cell-based; details: time hrs 24-48
[4] = molecular target: Bromodomain-containing protein 4 (Homo sapiens) (UniProt O60885); experiment: Inhibition of BRD4 in human HEL cells harboring JAK2 V617F mutant assessed as metabolic activity at 1 uM measured after 72 hrs by MTT assay relative to control; format: cell-based; parameters: Activity: scale not given: the % may be the effect or the level left
K562 [5] = experiment: Inhibition of BET in human K562 cells harboring BCR-ABL assessed as decrease in AURKB protein expression at 5 uM measured after 48 hrs by Western blot analysis; format: cell-based
HEL [6] = experiment: Induction of apoptosis in human HEL cells harboring JAK2 V617F mutant assessed as cleavage of PARP-1 at 5 uM measured after 24 to 48 hrs by Western blot analysis; format: functional, cell-based; details: time hrs 24-48
MOLM-14 [7] = experiment: Inhibition of BET in human MOLM-14 cells harboring FLT3-ITD mutant assessed as decrease in AURKB protein expression at 5 uM measured after 48 hrs by Western blot analysis; format: cell-based
BMMC = experiment: Anticlonogenic activity against AML patient derived BMMC harboring FLT3-ITD/FLT3-TKD mutant assessed as reduction in colony formation at 1 to 5 uM measured after 7 to 11 days; format: functional, tissue-based; details: Homo sapiens, dose microM 1-5, time day 7-11
HEL [8] = experiment: Inhibition of BET in human HEL cells harboring JAK2 V617F mutant assessed as increase in HEXIM1 protein expression at 5 uM measured after 24 hrs by Western blot analysis; format: cell-based
K562 [9] = experiment: Inhibition of BET in human K562 cells harboring BCR-ABL assessed as increase in HEXIM1 protein expression at 5 uM measured after 24 to 48 hrs by Western blot analysis; format: cell-based; details: time hrs 24-48
[10] = Cytotoxicity against human CD34+ cells assessed as reduction in colony formation at 1 to 5 uM measured after 7 to 11 days; format: cell-based; details: cd34-positive (myeloid/lymphoid) cell, dose 1-5 µM, time 7-11 day
MOLM-14 [11] = experiment: Inhibition of BET in human MOLM-14 cells harboring FLT3-ITD mutant assessed as increase in HEXIM1 protein expression at 5 uM measured after 24 hrs by Western blot analysis; format: cell-based
[12] = molecular target: Bromodomain-containing protein 2 (Homo sapiens) (UniProt P25440); experiment: Binding affinity to N-terminal His-tagged human recombinant BRD2 bromodomain 1 (71 to 194 residues) expressed in Escherichia coli assessed as change in melting temperature at 10 uM by BromoMELT assay
Bromodomain-containing protein 2 (Homo sapiens), sequence (P25440 whole entry, looked up, the tested form may be a part): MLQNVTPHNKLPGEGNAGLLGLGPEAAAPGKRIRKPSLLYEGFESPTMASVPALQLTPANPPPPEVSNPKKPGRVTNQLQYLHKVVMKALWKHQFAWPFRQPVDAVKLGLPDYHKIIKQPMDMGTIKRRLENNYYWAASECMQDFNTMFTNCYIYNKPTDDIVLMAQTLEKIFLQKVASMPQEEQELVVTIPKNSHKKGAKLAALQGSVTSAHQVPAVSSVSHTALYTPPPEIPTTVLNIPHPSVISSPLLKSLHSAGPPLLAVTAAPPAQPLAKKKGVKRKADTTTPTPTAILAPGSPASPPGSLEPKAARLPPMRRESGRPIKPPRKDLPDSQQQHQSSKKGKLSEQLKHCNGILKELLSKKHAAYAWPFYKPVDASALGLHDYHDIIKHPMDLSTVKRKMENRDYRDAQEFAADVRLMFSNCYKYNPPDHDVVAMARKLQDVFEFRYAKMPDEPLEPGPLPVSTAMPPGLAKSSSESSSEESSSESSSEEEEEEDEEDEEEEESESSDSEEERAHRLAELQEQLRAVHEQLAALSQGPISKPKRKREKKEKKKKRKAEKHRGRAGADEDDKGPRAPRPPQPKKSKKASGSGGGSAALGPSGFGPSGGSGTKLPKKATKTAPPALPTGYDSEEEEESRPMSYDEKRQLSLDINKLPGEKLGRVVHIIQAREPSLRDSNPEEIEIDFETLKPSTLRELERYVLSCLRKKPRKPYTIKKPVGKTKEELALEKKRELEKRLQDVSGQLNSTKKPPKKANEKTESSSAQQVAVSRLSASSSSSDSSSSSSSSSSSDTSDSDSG

[13] = Cytotoxicity against human PBMC assessed as reduction in colony formation at 1 to 5 uM measured after 7 to 11 days; format: tissue-based; details: dose 1-5 µM, time 7-11 day
[14] = molecular target: Bromodomain-containing protein 4 (Homo sapiens) (UniProt O60885); experiment: Inhibition of BRD4 in human K562 cells harboring BCR-ABL assessed as decrease in metabolic activity at 10 uM measured after 72 hrs by MTT assay; format: cell-based
[15] = molecular target: Bromodomain-containing protein 4 (Homo sapiens) (UniProt O60885); experiment: Inhibition of BRD4 in human HEL cells harboring JAK2 V617F mutant assessed as decrease in metabolic activity at 10 uM measured after 72 hrs by MTT assay; format: cell-based
[16] = molecular target: Bromodomain-containing protein 4 (Homo sapiens) (UniProt O60885); experiment: Inhibition of BRD4 in human MOLM-14 cells harboring FLT3-ITD mutant assessed as decrease in metabolic activity at 10 uM measured after 72 hrs by MTT assay; format: cell-based
[17] = molecular target: Bromodomain-containing protein 4 (Homo sapiens) (UniProt O60885); experiment: Inhibition of BRD4 in human MOLM-14 cells harboring FLT3-ITD mutant assessed as cell viability at 5 uM measured after 72 hrs by tryphan blue staining based assay relative to control
[18] = molecular target: Bromodomain-containing protein 4 (Homo sapiens) (UniProt O60885); experiment: Inhibition of BRD4 in human MOLM-14 cells harboring FLT3-ITD mutant assessed as cell cycle arrest by measuring increase in cell population at sub-G1 phase at 1 to 5 uM measured after 24 hrs by propidium iodide staining based FACS analysis; details: dose microM 1-5, time 24.0 hrs
[19] = molecular target: Bromodomain-containing protein 4 (Homo sapiens) (UniProt O60885); experiment: Inhibition of BRD4 in human MOLM-14 cells harboring FLT3-ITD mutant assessed as metabolic activity at 1 uM measured after 72 hrs by MTT assay relative to control; format: cell-based; parameters: scale not given: the % may be the effect or the level left
[20] = molecular target: Bromodomain-containing protein 4 (Homo sapiens) (UniProt O60885); experiment: Inhibition of BRD4 in human HEL cells harboring JAK2 V617F mutant assessed as cell viability at 5 uM measured after 72 hrs by tryphan blue staining based assay relative to control
K562 [21] = experiment: Inhibition of BET in human K562 cells harboring BCR-ABL assessed as increase in HEXIM1 protein expression at 5 uM preincubated in medium for 24 to 48 hrs followed by cell addition and measured after 24 hrs by Western blot analysis; format: cell-based; details: time 96.0 hrs
[22] = molecular target: Bromodomain-containing protein 4 (Homo sapiens) (UniProt O60885); experiment: Inhibition of BRD4 in human HEL cells harboring JAK2 V617F mutant assessed as cell cycle arrest by measuring decrease in cell population at S phase at 1 to 5 uM measured after 24 hrs by propidium iodide staining based FACS analysis; details: dose microM 1-5, time 24.0 hrs
HEL [23] = experiment: Inhibition of BET in human HEL cells harboring JAK2 V617F mutant assessed as increase in HEXIM1 protein expression at 5 uM preincubated in medium for 24 to 48 hrs followed by cell addition and measured after 24 hrs by Western blot analysis; format: cell-based; details: time 96.0 hrs
[24] = molecular target: Bromodomain-containing protein 4 (Homo sapiens) (UniProt O60885); experiment: Inhibition of BRD4 in human HEL cells harboring JAK2 V617F mutant assessed as reduction in cell proliferation at 1 to 5 uM after 72 hrs by tryphan blue staining based assay; details: dose microM 1-5, time 72.0 hrs
K562 [25] = experiment: Induction of apoptosis in human K562 cells harboring BCR-ABL assessed as cleavage of PARP-1 at 5 uM measured after 24 to 48 hrs by Western blot analysis; format: functional, cell-based; details: time hrs 24-48
MOLM-14 [26] = experiment: Inhibition of BET in human MOLM-14 cells harboring FLT3-ITD mutant assessed as increase in HEXIM1 protein expression at 5 uM preincubated in medium for 24 to 48 hrs followed by cell addition and measured after 24 hrs by Western blot analysis; format: cell-based; details: time 96.0 hrs
[27] = molecular target: Bromodomain-containing protein 4 (Homo sapiens) (UniProt O60885); experiment: Inhibition of BRD4 in human HEL cells harboring JAK2 V617F mutant assessed as cell cycle arrest by measuring increase in cell population at sub-G1 phase at 1 to 5 uM measured after 24 hrs by propidium iodide staining based FACS analysis; details: dose microM 1-5, time 24.0 hrs
MOLM-14 [28] = experiment: Inhibition of BET in human MOLM-14 cells harboring FLT3-ITD mutant assessed as decrease in AURKB protein expression at 5 uM measured after 24 to 48 hrs by Western blot analysis; format: cell-based; details: time hrs 24-48
[29] = molecular target: Bromodomain-containing protein 4 (Homo sapiens) (UniProt O60885); experiment: Binding affinity to N-terminal His-tagged human recombinant BRD4 bromodomain 1 (44-170 residues) expressed in Escherichia coli assessed as change in melting temperature at 10 uM by BromoMELT assay
[30] = molecular target: Bromodomain-containing protein 4 (Homo sapiens) (UniProt O60885); experiment: Inhibition of BRD4 in human MOLM-14 cells harboring FLT3-ITD mutant assessed as reduction in cell proliferation at 1 to 5 uM after 72 hrs by tryphan blue staining based assay; details: dose microM 1-5, time 72.0 hrs
[31] = molecular target: Bromodomain-containing protein 4 (Homo sapiens) (UniProt O60885); experiment: Inhibition of BRD4 in human K562 cells harboring BCR-ABL assessed as reduction in cell proliferation at 1 to 5 uM after 72 hrs by tryphan blue staining based assay; details: dose microM 1-5, time 72.0 hrs
HEL [32] = experiment: Inhibition of BET in human HEL cells harboring JAK2 V617F mutant assessed as decrease in AURKB protein expression at 5 uM measured after 24 to 48 hrs by Western blot analysis; format: cell-based; details: time hrs 24-48
[33] = molecular target: Bromodomain-containing protein 4 (Homo sapiens) (UniProt O60885); experiment: Inhibition of BRD4 in human MOLM-14 cells harboring FLT3-ITD mutant assessed as cell cycle arrest by measuring increase in cell population at G0/G1 phase at 1 to 5 uM measured after 24 hrs by propidium iodide staining based FACS analysis; details: dose microM 1-5, time 24.0 hrs
[34] = molecular target: Bromodomain-containing protein 4 (Homo sapiens) (UniProt O60885); experiment: Inhibition of BRD4 in human MOLM-14 cells harboring FLT3-ITD mutant assessed as cell cycle arrest by measuring decrease in cell population at S phase at 1 to 5 uM measured after 24 hrs by propidium iodide staining based FACS analysis; details: dose microM 1-5, time 24.0 hrs
[35] = molecular target: Bromodomain-containing protein 4 (Homo sapiens) (UniProt O60885); experiment: Inhibition of BRD4 in human HEL cells harboring JAK2 V617F mutant assessed as cell cycle arrest by measuring increase in cell population at G0/G1 phase at 1 to 5 uM measured after 24 hrs by propidium iodide staining based FACS analysis; details: dose microM 1-5, time 24.0 hrs
[36] = molecular target: Bromodomain-containing protein 4 (Homo sapiens) (UniProt O60885); experiment: Inhibition of BRD4 in human K562 cells harboring BCR-ABL assessed as decrease in metabolic activity at 0.01 to 20 uM measured after 72 hrs by MTT assay; format: cell-based; details: dose microM 0.01-20, time 72.0 hrs

SMILES: CN1Cc2cc(N=S(C)(=Nc3ccccc3)c3ccccc3)ccc2NC1=O (stereo unspecified)
inhibition [14]: inactive
inhibition [15]: Active
inhibition [16]: Active

SMILES: CN1Cc2cc(N=S(C)(=N)c3ccccc3)ccc2NC1=O (stereo unspecified)
inhibition [14]: inactive
inhibition [15]: Active
inhibition [16]: Active

SMILES: CN=S(C)(=Nc1ccc2c(c1)CN(C)C(=O)N2)c1ccccc1 (stereo unspecified)
inhibition [14]: inactive
inhibition [15]: Active
inhibition [16]: Active

More lines, main results first:

inhibition [4]: inactive
SMILES: CN1Cc2cc(N=[S@](C)(=O)c3ccccc3)ccc2NC1=O
inhibition (MOLM-14 [1]): inactive
inhibition (HEL [2]): inactive
Activity (MOLM-14 [3]): inactive
inhibition (K562 [5]): Active
Activity (HEL [6]): inactive
inhibition (MOLM-14 [7]): Active

ΔTm [12]: 3.5 °C
SMILES: COc1ccccc1S(=O)(=O)Nc1ccc2c(c1)CN(C)C(=O)N2
Activity (BMMC): Active
inhibition (HEL [8]): Active
inhibition (K562 [9]): Active
Activity [10]: Toxic
inhibition (MOLM-14 [11]): Active
Activity [13]: Toxic

inhibition [18]: Active
Activity [19]: 55%
inhibition [22]: Active
inhibition [24]: Active
Activity [4]: 37%
inhibition [27]: Active
ΔTm [29]: 5 °C
inhibition [30]: Active
ΔTm [12]: 3.5 °C
inhibition [31]: Active
inhibition [33]: Active
inhibition [34]: Active
inhibition [35]: Active
inhibition [36]: inactive
SMILES: CN1Cc2cc(N=[S@@](C)(=O)c3ccccc3)ccc2NC1=O
Activity [17]: 57%
Activity (BMMC): Active
Activity [20]: 55%
inhibition (K562 [21]): Active
inhibition (HEL [23]): Active
Activity (K562 [25]): inactive
Activity (MOLM-14 [3]): Active
inhibition (HEL [8]): Active
Activity (HEL [6]): Active
inhibition (MOLM-14 [26]): Active
inhibition (K562 [9]): Active
inhibition (MOLM-14 [28]): Active
Activity [10]: Toxic
inhibition (MOLM-14 [11]): Active
Activity [13]: Toxic
inhibition (HEL [32]): Active

inhibition [14]: inactive
inhibition [15]: Active
inhibition [16]: Active
SMILES: COc1ccccc1S(C)(=O)=Nc1ccc2c(c1)CN(C)C(=O)N2 (stereo unspecified)
